{"source": "patent US9856232B1", "about": "“Dihydropyrimidinone derivatives” (KING SAUD UNIVERSITY, priority 2017, dated 2018)", "type_in_all_cases": "in vivo, Albino Wistar rats", "key": {"[1]": {"test_system": "Gastric lesions induced by 80% ethanol", "assay": "Gastric lesions induced by ethanol (ulcer index by severity scores)", "details": "Rattus norvegicus, po, Ranitidine 50 mg/kg, vs 80% EtOH group of the row; read-out: Gastric lesions induced by 80% ethanol, % change", "procedure": "(§1) Albino Wistar rats of either sex, approximately the same age, weighing 150 to 200 g and fed on a diet of standard chow were used in this study. They were randomly divided into experimental groups of six rats each. Compounds (N-1 to N-18) 12.5, 25, and 50 mg/kg were given orally in the anti-ulcer studies and intraperitoneally for gastric secretion evaluation. The rats were sacrificed, and the stomachs removed and opened along the greater curvature, After washing with saline, the gastric lesions were quantified by a person unaware of the treatments. The animal study protocol was approved by the Research and Ethics Committee of the Experimental Animal Care Society, College of Pharmacy, King Saud University, Riyadh, Saudi Arabia.\nGastric lesions induced by ethanol: Albino rats of either sex weighing between (150-200 g) are divided into groups. The animals were fasted for 24 hours with free access to water. Animals were given test drugs or standard drug. One hour later 1 mL/200 gm of 80% ethanol is administered orally to each animal. The animals were anaesthetized 1 hour latter with anesthetic ether and stomach was incised along the greater curvature and ulceration was scored. The number of ulcers and the length of each ulcer were measured. Ulcer index was calculated using severity scores. The mucosal damage was examined by means of a magnifying glass. For each stomach the mucosal damage was assessed according to the following scoring system: 0.5 redness; 1.0 spot ulcers; 1.5 hemorrhagic streaks; 2.0 ulcers<3, but≦5; 3.0 ulcers>5. Table 1 provides the effect of compounds on gastric lesions induced by 80% ethanol (mean±SE)."}, "[2]": {"test_system": "gastric secretion in pylorus-ligated Shay rats", "assay": "Pylorus-ligated rats: gastric secretion, acidity and lesion index", "parameters": "Ulcer Index, pylorus-ligated Shay rats: scale not given here", "details": "50 mg/kg, i.p.; 6 h after pylorus ligation; mean ± SE", "procedure": "as §1\nPylorus-ligated rats: Rats were fasted for 36 hours with access to water ad libitum before pylorus ligation under ether anesthesia was carried out. Care was taken not to cause bleeding or to occlude blood vessels. Compounds (N-3, N-8, N-11, and N-15) were administered intraperitoneally immediately after pylorus ligation. The rats were sacrificed at 6 hours after pylorus ligation. The stomachs were removed, the contents were collected, volumes measured, centrifuged and analyzed for tritratable acidity against […], NaOH at pH 7.0. Table 5 provides the effect of compounds on gastric secretion, acidity, and gastric lesion index in pylorus-ligated Shay rats (mean±SE)."}, "[3]": {"test_system": "gastric wall mucus in stomach tissue, change induced by 80% ethanol", "assay": "Determination of gastric wall mucus (GWM)", "details": "50 mg/kg, i.p; 80% ethanol-treated rats; mean ± SE", "procedure": "as §1\nDetermination of gastric wall mucus (GWM): Gastric wall mucus was determined according to the modified procedure. The glandular segment of the stomach was separated from the rumen of the stomach, weighed, and transferred immediately to 10 mL of 0.1% w/v Alcian blue solution (in […] sucrose solution buffered with […] sodium acetate at pH 5. Tissue was stained for 2 hours in Alcian blue, and excess dye was removed by two successive rinses with 10 mL of […] sucrose, firstly after 15 minutes and then after 45 minutes. Dye complexed with the gastric wall mucus was extracted with 10 ml of […] magnesium chloride which was intermittently shaken for 1 minute at 30 minute intervals for 2 hours. Four milliliters of blue extract were then vigorously shaken with an equal volume of diethyl ether. The resulting emulsion was centrifuged at 4000 r/min for 10 minutes and the absorbance of the aqueous layer was recorded at 580 nm. The quantity of Alcian blue extracted per gram of wet glandular tissue was then calculated. Table 6 provides the effect of compounds on the change in gastric wall mucus in stomach tissue induced by 80% ethanol (mean±SE)."}, "[4]": {"test_system": "Indomethacin-induced gastric mucosal lesions", "assay": "Gastric lesions induced by Indomethacin", "parameters": "scale not given here", "details": "50 mg/kg, i.p; 30 min before Indomethacin 30 mg/kg; mean ± SE", "source_text": "as §1, with “Compounds (N-1 to N-18) 12.5, 25, and 50 mg/kg were given orally in the anti-ulcer studies and intraperitoneally for gastric secretion evaluation.” left out\nGastric lesions induced by Indomethacin: Indomethacin was suspended in 1.0% carboxymethylcellulose (CMC) in water (6 mg/mL) and administered orally to the 36 hour fasted rats at a dose of 30 mg/kg body weight. Control rats were treated similarly with an equivalent amount of vehicle. […] The animals were sacrificed 6 hours after treatment. The stomachs were excised, rinsed with normal saline and examined for ulceration. Table 3 provides the effect of compounds on Indomethacin-induced gastric mucosal lesions (mean±SE)."}, "[5]": {"test_system": "Gastric lesions induced by necrotizing agents (80% ethanol, 0.2 mol/L NaOH or 25% NaCl)", "assay": "Gastric lesions induced by necrotizing agents (cytoprotection)", "details": "50 mg/kg, i.p; 30 min before necrotizing agent; mean ± SE"}, "[6]": {"test_system": "total protein in stomach tissue, induced by 80% ethanol", "assay": "Total protein in stomach tissue", "details": "dose 50, 80% ethanol-treated rats, mean ± SE"}, "[7]": {"test_system": "gastric mucosal non-protein sulfhydryls, induced by 80% ethanol", "assay": "Estimation of non-protein sulfhydryls (NP-SH)", "details": "dose 50; stomach tissue, 80% ethanol-treated rats; mean ± SE", "procedure": "as §1\nEstimation of non-protein sulfhydryls (NP_SH): Gastric mucosal non-protein sulfhydryls were measured according to the method. The glandular part of the stomach was homogenized in ice-cold 0.02 mmol/L ethylenediaminetetraacetic acid (EDTA). Aliquots of 5 mL of the homogenates were mixed in 15 mL test tubes with 4 mL of distilled water and 1 mL of 50% trichloroacetic acid (TCA). The tubes were shaken intermittently for 10 minutes and centrifuged at 3000 r/min. Two milliliters of supernatant were mixed with 4 mL of 0.4 mol/L Tris buffer at pH 8.9. Then 0.1 ML of 5, 5′-dithio-bis (2-nitrobenzoic acid) (DTNB) was added and the sample was shaken. The absorbance was measured within 5 minutes of DTNB addition at 412 nm against a reagent blank."}, "[8]": {"test_system": "Hypothermic restraint stress-induced intraluminal bleeding and gastric lesion", "assay": "Hypothermic restraint stress-induced ulcers", "parameters": "Gastric Lesion Ulcer Index: scale not given here", "details": "50 mg/kg; hypothermic restraint 3 h; mean ± SE"}, "[9]": {"test_system": "malondialdehyde in stomach tissue, induced by 80% ethanol", "assay": "Determination of malondialdehyde (MDA)", "details": "dose 50, 80% ethanol-treated rats, mean ± SE", "procedure": "as §1\nDetermination of malondialdehyde (MDA): The animals were sacrificed 1 hour after ethanol administration. The stomachs were removed and each was homogenized in 0.15 mol/L KCl (at 4° C.) in a Potter-Elvehjem type C homogenizer to give a 10% w/v homogenate. Aliquots of homogenate 1 mL in volume were incubated at 37° C. for 3 hours in a metabolic shaker. Then 1 mL of 10% aqueous TCA was added and mixed. The mixture was then centrifuged at 800 g for 10 minutes. One milliliter of the supernatant was removed and mixed with 1 mL of 0.67% w/v thiobarbituric acid in water and placed in a boiling water bath for 10 minutes. The mixture was cooled and diluted with 1 mL distilled water. The absorbance of the solution was then read at 535 nm. The content of malondialdehyde (nmol/g wet tissue) (index of the magnitude of lipid peroxidation) was then calculated, by reference to a standard curve of malondialdehyde solution. Table 7 provides the effect of compounds on the levels of MDA, NP_SH, and total protein in stomach tissue induced by 80% ethanol (mean±SE)."}}, "note": "Marks after values point to notes of the source that are not given here.", "data": [{"smiles": "CNC(=C[N+](=O)[O-])NCCSCc1ccc(CN(C)C)o1", "note": "[Ranitidine, reference compound]", "values": [{"measurement": "inhibition in vivo at 50 mg/kg", "setting": "[1]", "value": 73.3, "unit": "%"}, {"measurement": "Titratable Acidity", "setting": "[2]", "value": "58.88 ± 1.85", "unit": "mEg/L"}, {"measurement": "Ulcer Index, pylorus-ligated Shay rats", "setting": "[2]", "value": "0.50 ± 0.22"}, {"measurement": "Volume of Gastric Content", "setting": "[2]", "value": "4.06 ± 0.18", "unit": "mL"}, {"measurement": "Gastric Wall Mucus", "setting": "[3]", "value": "287.24 ± 10.70***^b μg/g"}, {"measurement": "Ulcer Index, indomethacin-induced gastric mucosal lesions", "setting": "[4]", "value": "8.50 ± 0.56"}, {"measurement": "Ulcer Index, 0.2 mol/L NaOH", "setting": "[5]", "value": "1.00 ± 0.36"}, {"measurement": "Ulcer Index, 25% NaCl", "setting": "[5]", "value": "1.16 ± 0.30"}, {"measurement": "Ulcer Index, 80% EtOH", "setting": "[5]", "value": "1.50 ± 0.22"}, {"measurement": "Total Protein", "setting": "[6]", "value": "104.59 ± 1.59***^b g/L"}, {"measurement": "NP-SH", "setting": "[7]", "value": "4.24 ± 0.15**^b nmol/g"}, {"measurement": "Gastric Lesion Ulcer Index", "setting": "[8]", "value": "9.66 ± 0.95"}, {"measurement": "Intraluminal Bleeding Score", "setting": "[8]", "value": "0.83 ± 0.30"}, {"measurement": "MDA", "setting": "[9]", "value": "1.65 ± 0.02***^b nmol/g"}]}]}
